Laboratory results from ChEMBL document CHEMBL4376882, “Photodynamic Therapy for ras-Driven Cancers: Targeting G-Quadruplex RNA Structures with Bifunctional Alkyl-Modified Porphyrins” (J Med Chem, 2020).
Activity calls are given as the source filed them. No cut-off for these calls is given here.

Columns and labels:
[1] = Drug uptake in mouse NIH/3T3 cells at 5 uM and 4 degree C after 16 hrs by FACS analysis relative to 37 degree C; type: ADME, cell-based; conditions: nih3t3, 16 h
[2] = Binding affinity to NRAS RNA g-quadruplex (unknown origin) at 40 degree C by SPR analysis; type: nucleic-acid assay
[3] = Induction of ROS-mediated Cys5.5 labelled utr-c RNA duplex (unknown origin) degradation at 0.6 uM incubated for 30 mins followed by photoirradiation for 15 to 30 mins by PAGE analysis
PANC-1 [4] = test: Induction of apoptosis in human PANC1 cells assessed as early apoptotic cells at 10 nM and photoirradiated at 7.2 J/cm2 measured after 6 to 24 hrs by annexin-V-propidium iodide staining based FACScalibur flow cytometry analysis (reference value: 4.6 %); type: functional
PANC-1 [5] = test: Induction of apoptosis in human PANC1 cells assessed as viable cells at 10 nM and photoirradiated at 7.2 J/cm2 measured after 6 to 24 hrs in presence of NAC by annexin-V-propidium iodide staining based FACScalibur flow cytometry analysis (reference value: 94.5 %); type: functional; conditions: PANC-1, light or radiation study, read-out: Activity
PANC-1 [6] = test: Induction of apoptosis in human PANC1 cells assessed as early apoptotic cells at 10 nM and photoirradiated at 7.2 J/cm2 measured after 6 to 24 hrs in presence of NAC by annexin-V-propidium iodide staining based FACScalibur flow cytometry analysis (reference value: 3.1 %); type: functional

With `CCCCCCCCCCCCCC[n+]1ccc(-c2c3nc(c(-c4cc[n+](C)cc4)c4ccc([nH]4)c(-c4cc[n+](C)cc4)c4nc(c(-c5cc[n+](C)cc5)c5ccc2[nH]5)C=C4)C=C3)cc1.[I-].[I-].[I-].[I-]` the Drug uptake [1] was “Active”, the Kd [2] was 56 to 98 nM and the Activity [3] was “inactive”. The Activity (PANC-1 [4]) was 4.8%, the viability at 0.01 µM (PANC-1 [5]) was 90.9% and the Activity (PANC-1 [6]) was 3.7%.
